Structures can show the parent of a compound that is named as a salt.

For one assay, the system named is hES cells. Put plainly: Alkaline phosphatase staining screen of LOPAC1280 library (primary screen and secondary dose titration). To be noted: Homo sapiens; secondary screen, dilution series, 48 hours with compound, AP staining, StemPro hESC SFM, 96-well; read-out: [Concentration] minimal effective concentration negatively impacting hES cell cultures. It counts as cell-based, human. How it is done:
FIG. 1. Representation of antagonists/modulators of neurotransmitter/hormone receptors identified by compound screening in hES cells. […] Receptor antagonists identified in the primary screen are shown (left column). The screen was performed using compounds at 10 μM. The secondary dose titration assay is shown (50-0.1 μM columns), and receptor class targeted by each compound and action is indicated.
Applying this approach in 96- and 384-well plates, quantitative and statistically significant cell-counting data was generated confirming the effect of AG825, an inhibitor of ERBB2 signaling, on self-renewal. About 3×10^4 hES cells per well were plated on MATRIGEL™ in StemPro® hESC SFM in 96-well plates and cultured for about 24 hours. The media was then changed, with new media containing 10 μM of a compound from the LOPAC1280 library (partial list in Table 1), and the cultures incubated for an additional 48 hours. The cultures were then fixed and stained for endogenous alkaline phosphatase, a marker of undifferentiated hES cells, activity.
The LOPAC1280 collection (Sigma Cat# LO1280), a library of small organic molecules with well-characterized pharmacological activities, was screened using the above described alkaline phosphatase detection assay in 96-well plates (16 plates total). Each 96-well assay was performed with 80 compounds (1 compound per well) and 16 wells as DMSO carrier negative controls. Greater than about 50 compounds were identified in the primary screen as impacting hES cell growth & expansion, which was then further determined to be a group of 38 molecules (Table 1) after secondary screening, and when known generally cytotoxic molecules were excluded (for example, 5-Azacytidine). Pathways that are likely to be impacted by these molecules, and therefore possibly important in hES cells, included those involving signalling by NFκB, eNOS, RAR(a), calcium channels, tachykinin signaling, guanylyl cyclase, Src and Jak2.
Secondary screening was performed using the same assay, but with a dilution series of 0.1-50 μM of a compound as compared to the 10 μM initially used. The minimal effective concentration for each compound is indicated (Table 1). […] While a role for GABA signaling in hES cell self-renewal has been highlighted previously (Ludwig et al., 2006), it has not been examined under other defined media conditions. Potential roles for other neurotransmitters in undifferentiated pluripotent stem cells have not been characterized.
As to `Oc1cc(-c2ccccc2)nc2nc(Cl)ccc12` [7-Chloro-4-hydroxy-2-phenyl-1,8-naphthyridine], the minimal effective concentration is 5 µM.
For `O=C(/C=C/c1ccc(O)c(O)c1)OCCc1ccccc1` [Caffeic acid phenethyl ester], the minimal effective concentration was below 0.1 µM.
With `CNc1ccc2oc(C[C@H]3O[C@@]4(CC[C@H]3C)O[C@H]([C@H](C)C(=O)c3ccc[nH]3)[C@H](C)C[C@H]4C)nc2c1C(=O)O` [Calcimycin], the minimal effective concentration was 1 µM.
For `Clc1ccc(C(c2ccc(Cl)cc2)n2cc[n+](CC(OCc3ccc(Cl)cc3Cl)c3ccc(Cl)cc3Cl)c2)cc1` (stereo not shown) [Calmidazolium chloride], the minimal effective concentration was determined as 5 µM.
Regarding `Oc1cc2c(cc1O)CN(C(=S)NCCc1ccc(Cl)cc1)CCC2` [Capsazepine], the minimal effective concentration came out at 5 µM.
`Cc1cc(N)c2ccccc2[n+]1CCCCCCCCCC[n+]1c(C)cc(N)c2ccccc21` [Dequalinium chloride hydrate]: the minimal effective concentration was 5 µM.
Consider `c1ccc2c(c1)[I+]c1ccccc1-2` [Diphenyleneiodonium chloride], for which the minimal effective concentration was 0.1 µM.
Consider `O=c1[nH]c2ccccc2n1CCCN1CCC(n2c(=O)[nH]c3cc(Cl)ccc32)CC1` [Domperidone], for which the minimal effective concentration was determined as 25 µM.
As to `COC(=O)C1=C(C)NC(C)=C(C(=O)OC(C)(C)CN(C)CCC(c2ccccc2)c2ccccc2)C1c1cccc([N+](=O)[O-])c1` (stereo not shown) [Lercanidipine hydrochloride hemihydrate], the minimal effective concentration came out at 10 µM.
Take `CC[N+](CC)(CC)CCOc1ccc(/C=C/c2ccccc2)cc1` [MG 624]: the minimal effective concentration turned out to be 0.1 µM.
`COCC(=O)O[C@]1(CCN(C)CCCc2nc3ccccc3[nH]2)CCc2cc(F)ccc2[C@@H]1C(C)C` [Mibefradil dihydrochloride]: the minimal effective concentration was determined as 25 µM.
Turning to `CCCCCCCC/C=C\CCCCCCCC(=O)NCCc1ccc(O)c(O)c1` [N-Oleoyldopamine], the minimal effective concentration is 5 µM.
As to `CC(Cc1ccc(O)c(O)c1)C(C)Cc1ccc(O)c(O)c1` (stereo not shown) [Nordihydroguaiaretic acid], the minimal effective concentration worked out at 5 µM.
With `C[C@@H]1O[C@@H](O[C@H]2C[C@@H](O)[C@]3(CO)[C@H]4[C@H](O)C[C@]5(C)[C@@H](C6=CC(=O)OC6)CC[C@]5(O)[C@@H]4CC[C@]3(O)C2)[C@H](O)[C@H](O)[C@H]1O` [Ouabain], the minimal effective concentration is below 0.1 µM.
`N=C(N)c1ccc(OCCCCCOc2ccc(C(=N)N)cc2)cc1` [Pentamidine isethionate]: the minimal effective concentration was 1 µM.
`COc1cc([C@@H]2c3cc4c(cc3[C@H](O)[C@H]3COC(=O)[C@H]23)OCO4)cc(OC)c1OC` [Podophyllotoxin]: the minimal effective concentration was below 0.1 µM.
As to `C=CC1=C(C)c2cc3[nH]c(cc4nc(cc5[nH]c(cc1n2)c(C)c5CCC(=O)O)C(CCC(=O)O)=C4C)c(C)c3C=C` [Protoporphyrin IX disodium], the minimal effective concentration was 10 µM.
Consider `CCN(CC)CCCC(C)Nc1c2ccc(Cl)cc2nc2ccc(OC)cc12` (stereo not shown) [Quinacrine dihydrochloride], for which the minimal effective concentration is 10 µM.
`Cc1nc(-c2ccc(-c3ccc(C(=O)N4CCc5cc6c(cc54)C4(CCN(C)CC4)CO6)cc3)c(C)c2)no1` [SB 224289 hydrochloride]: the minimal effective concentration worked out at 25 µM.
In the case of `COc1ccc(CCCOC(Cn2ccnc2)c2ccc(OC)cc2)cc1` (stereo not shown) [SKF 96365], the minimal effective concentration came out at 25 µM.
Same read-out and setting: to `CN(C)S(=O)(=O)c1ccc2c(c1)/C(=C/c1cc3c([nH]1)CCCC3)C(=O)N2` [SU 6656] belongs 25 µM; to `CC(C)(C)c1ccc(C(O)CCCN2CCC(C(O)(c3ccccc3)c3ccccc3)CC2)cc1` (stereo not shown) [Terfenadine], 25 µM.
The same measure, in the same setting: the figure for `C/C=C(/C)C(=O)O[C@H]1C(C)=C2[C@H]([C@@H]1OC(=O)CCCCCCC)[C@@](C)(OC(C)=O)C[C@H](OC(=O)CCC)[C@@]1(O)[C@H]2OC(=O)[C@@]1(C)O` [Thapsigargin] is below 0.1 µM.
Same read-out and setting: the figure for `CC1(C)CCC2=C(O1)c1ccccc1C(=O)C2=O` [beta-Lapachone] is 5 µM.

Staying with this assay, now noted: secondary screen, dilution series, 48 hours with compound, AP staining, StemPro hESC SFM, 96-well; read-out: [Concentration] minimal effective concentration negatively impacting hES cell cultures.
In the case of `COc1cc2c(cc1O)CC[C@@H]1[C@@H]2CC[C@]2(C)[C@@H](O)CC[C@@H]12` [2-methoxyestradiol], the minimal effective concentration came out at 10 µM.
For `CC[n+]1c(/C=C/C=C2/N(C)c3ccccc3C2(C)C)sc2ccccc21.[I-]` [AC-93253 iodide], the minimal effective concentration worked out at 5 µM.
Take `N.S=C(S)N1CCCC1` [Ammonium pyrrolidinedithiocarbamate]: the minimal effective concentration is listed as 10 µM.
As for `C[C@H]1CCC/C=C/[C@@H]2C[C@H](O)C[C@H]2[C@H](O)/C=C/C(=O)O1` [Brefeldin A], the minimal effective concentration was below 0.1 µM.
On to `C[C@@H]1O[C@@H](O[C@H]2C[C@@H](O)[C@]3(CO)[C@H]4[C@H](O)C[C@]5(C)[C@@H]([C@@H]6COC(=O)C6)CC[C@]5(O)[C@@H]4CC[C@]3(O)C2)[C@H](O)[C@H](O)[C@H]1O` [Dihydroouabain], for which the minimal effective concentration is reported as 1 µM.
In the case of `CNC(=O)[C@H]1O[C@@H](n2cnc3c(NCc4cccc(I)c4)ncnc32)[C@H](O)[C@@H]1O` [IB-MECA], the minimal effective concentration came to 50 µM.
`Ic1ccccc1CNC1C2CCN(CC2)C1C(c1ccccc1)c1ccccc1.O=C(O)C(=O)O` [L-703,606 oxalate]: the minimal effective concentration was 25 µM.
As for `CC(C)[C@H]1c2ccc(F)cc2CC[C@@]1(CCN(C)CCCc1nc2ccccc2[nH]1)OC(=O)C1CC1` [NNC 55-0396], the minimal effective concentration is 25 µM.
With `Nc1ccc(CCN2CCN(c3cccc(C(F)(F)F)c3)CC2)cc1` [PAPP], the minimal effective concentration turned out to be 25 µM.
For the molecule `CC1=C(/C=C/C(C)=C/C=C/C(C)=C/C(=O)Nc2ccc(O)cc2)C(C)(C)CCC1` [Retinoic acid p-hydroxyanilide], the minimal effective concentration came out at 1 µM.
With `N#C/C(=C\c1ccc(O)c(O)c1)C(=O)NCc1ccccc1` [Tyrphostin AG 490], the minimal effective concentration amounted to 25 µM.
Regarding Ivermectin, the minimal effective concentration is recorded as 5 µM.
Regarding Vinblastine sulfate salt, the minimal effective concentration was below 0.1 µM.
